Measurements reported in the NIST ThermoML archive (doi:10.1016/j.jct.2017.08.017).
Several values for one entry are separate records, joined by “and”; a condition that tells them apart may be missing. Equal values may be shown once. ± gives the expanded uncertainty stated by the source. Blank lines part the entries; values can stand above or below the molecule they belong to.

What was measured:
[1] = molar enthalpy of vaporization or sublimation; details: 298.15 K; Crystal; Static calorimetry
[2] = Crystal, Calculated from knudsen effusion weight loss

molar enthalpy [1]: 25.1 ± 0.526 kcal/mol
Compound: Oc1ccccc1-c1nc2ccccc2s1 [2-(2-hydroxyphenyl)-1,3-benzothiazole]

molar enthalpy [1]: 24 ± 0.43 kcal/mol
Compound: Oc1ccccc1-c1nc2ccccc2o1 [2-(2-hydroxyphenyl)benzoxazole]
vapor or sublimation pressure ([2]; 331.16 K): 0.000127 ± 0.00012 kPa and 0.00012 ± 0.00012 kPa and 0.000119 ± 0.00012 kPa
vapor or sublimation pressure ([2]; 333.19 K): 0.000156 ± 0.00012 kPa and 0.000152 ± 0.00012 kPa and 0.00015 ± 0.00012 kPa
vapor or sublimation pressure ([2]; 335.13 K): 0.000191 ± 0.00012 kPa and 0.000188 ± 0.00012 kPa
vapor or sublimation pressure ([2]; 337.16 K): 0.000233 ± 0.00012 kPa and 0.00023 ± 0.00012 kPa and 0.000248 ± 0.00012 kPa
vapor or sublimation pressure ([2]; 339.18 K): 0.000301 ± 0.00012 kPa and 0.000288 ± 0.00012 kPa and 0.000294 ± 0.00012 kPa
vapor or sublimation pressure ([2]; 341.12 K): 0.000365 ± 0.00012 kPa and 0.000362 ± 0.00012 kPa and 0.000366 ± 0.00012 kPa
vapor or sublimation pressure ([2]; 343.16 K): 0.000446 ± 0.00012 kPa and 0.000441 ± 0.00012 kPa and 0.000477 ± 0.00012 kPa
vapor or sublimation pressure ([2]; 345.17 K): 0.000571 ± 0.00012 kPa and 0.000545 ± 0.00012 kPa and 0.000558 ± 0.00012 kPa
vapor or sublimation pressure ([2]; 347.11 K): 0.000688 ± 0.00012 kPa and 0.00068 ± 0.00012 kPa
vapor or sublimation pressure ([2]; 349.16 K): 0.000829 ± 0.00012 kPa and 0.000822 ± 0.00012 kPa and 0.000879 ± 0.00012 kPa
vapor or sublimation pressure ([2]; 351.16 K): 0.001027 ± 0.00014 kPa and 0.001049 ± 0.00014 kPa and 0.001006 ± 0.00014 kPa
vapor or sublimation pressure ([2]; 353.12 K): 0.001264 ± 0.00015 kPa and 0.001273 ± 0.00015 kPa and 0.00126 ± 0.00015 kPa

molar enthalpy [1]: 23.7 ± 0.406 kcal/mol
Compound: c1ccc(-c2nc3ccccc3s2)cc1 [2-phenylbenzothiazole]

molar enthalpy [1]: 21.7 ± 0.478 kcal/mol
Compound: c1ccc(-c2nc3ccccc3o2)cc1 [2-phenylbenzoxazole]
